Structures are written as SMILES. Counter-ions that a name gives are not always drawn. A value given as a limit tells only on which side of the number the result lay.

This note sets out measurements from patent US7141680B2, “Aromatic compounds possessing antifungal or antibacterial activity” (Genelabs Technologies, Inc., priority 2002, dated 2006).

In one test the test system is Aspergillus species. As to the kind of experiment: Minimum inhibitory concentration (MIC) assay, filamentous fungi. It is filed as cell-based. As to conditions: antifungal activity, lowest concentration at which 75% inhibition of growth is observed after 48 h. Here is the method: (§1) The assays described below were used to measure the minimum inhibitory concentration (MIC) of a compound necessary to inhibit visible growth of the organism tested. These assays are adapted from NCCLS protocols M7-A4 and M27-A (NCCLS vol 17:9 and vol 17:2) as modified by Sandven, S., Clin. Micro. (1999) 37:12, p. 3856–3859. MIC values for Aspergillus species were determined using NCCLS protocol M38-P.
(§2) All compounds were dissolved in 100% DMSO to a stock concentration of 10 mM and used fresh stock compounds in powder form were kept frozen until needed and used freshly. When used for test purposes, compounds were diluted in the appropriate media depending on the organism being tested.
(§3) For yeast and aspergillus species, seven 1:2 serial dilutions of compound in appropriate media buffered with MOPS at pH 7.0 were prepared such that the final starting test compound concentrations were 44.4 μM for yeast and 50 μM aspergillus species. For bacteria, dilutions were made in growth media used for the particular bacteria being tested.
Inoculums are made by incubating Aspergillus species for 7 days at 35° C. on potato dextrose agar slants. Slants are then covered with 1.0 mL of 0.85% saline, one drop of Tween 20 is added and colonies are teased with a sterile transfer loop to create a suspension which is allowed to sit for 5 min so heavier particles can drop out. The upper suspension is separated and adjusted to an optical density of 0.09 to 0.11. The resulting suspension is diluted 1:50, which yields 2× the final inoculum needed. Micro dilution trays are prepared as with yeast and incubated for 48 h at 35° C. For our purposes the MIC is defined as the lowest compound concentration at which 75% inhibition of growth is observed after 48 h.

The subject of a further test is bacteria. As to the kind of experiment: Minimum inhibitory concentration (MIC) assay, bacteria. Format: cell-based. On the procedure: as §1, §2, §3
Five well-separated colonies from a 24 h Sabouraud Dextrose plate incubated at 35° C. were picked and resuspended into 2 mL of normal saline. The O.D.530 was read and the culture was adjusted to 0.5 McFarland units with normal saline. A 1:2000 dilution was made with RPMI 1640 media buffered with MOPS at pH 7.0 and 100 μL of this inoculum preparation was added to an equal volume of test compound-containing media. 25 μL of the redox indicator Alamar Blue (Biosource International) was added to each well and the plates were incubated for 48 h at 35° C. Wells having yeast growth changed color from blue to pink.
Inoculums are made in the same manner as yeast except all dilutions are made in normal saline, with a final dilution of 1:200 and an inoculum of 10 μL.

By MIC is commonly meant the smallest concentration in the dilution series that meets the test's criterion for growth inhibition. High values mean a need for much substance, low ones inhibition by little substance. In turn, `CC(=N)NCCNC(=O)c1cc2cc(NC(=O)c3ccc4[nH]c(C(=O)NCCNC(C)=N)cc4c3)ccc2[nH]1` [Compound 9] had an MIC in the test on Aspergillus species not above 50 µM.
Take `N=C(N)NCCNC(=O)c1cc2cc(NC(=O)c3ccc4[nH]c(C(=O)NCCNC(=N)N)cc4c3)ccc2[nH]1` [Compound 10, 1H-Indole-2,5-dicarboxylic acid 2-[(2-gutanidino-ethyl)-amide] 5-{[2-(2-guanidino-ethylcarbamoyl)-1H-indol-5-yl]-amide}]: the values for the MIC with bacteria and against Aspergillus species were not above 45.5 µM and not above 50 µM, respectively.
In the same order, the values of `N=C(N)NCC1CCC(CNC(=O)c2cc3cc(NC(=O)c4ccc5[nH]c(C(=O)NCC6CCC(CNC(=N)N)CC6)cc5c4)ccc3[nH]2)CC1` (stereo not shown) [Compound 18, 1H-Indole-2,5-dicarboxylic acid 2-[(4-guanidinomethyl-cyclohexylmethyl)-amide] 5-({2-[(4-guanidinomethyl-cyclohexylmethyl)-carbamoyl}-1H-indol-5-yl}-amide)] are not above 45.5 µM and not above 50 µM.
In the same order, the values of `N=C(N)NCC(O)CNC(=O)c1cc2cc(NC(=O)c3ccc4[nH]c(C(=O)NCC(O)CNC(=N)N)cc4c3)ccc2[nH]1` (stereo not shown) [Compound 19, 1H-Indole-2,5-dicarboxylic acid 2-[(3-guanidino-2-hydroxy-propyl)-amide] 5-{[2-(3-guanidino-2-hydroxy-propylcarbamoyl)-1H-indol-5-yl]-amide}] are not above 45.5 µM and not above 50 µM.
In the same order, the values of `N=C(N)NCCCCCNC(=O)c1cc2cc(NC(=O)c3ccc4[nH]c(C(=O)NCCCCCNC(=N)N)cc4c3)ccc2[nH]1` [Compound 20, 1H-Indole-2,5-dicarboxylic acid 2-[(5-guanidino-pentyl)-amide] 5-{[2-(5-guanidino-pentylcarbanzoyl)-1H-indol-5-yl]-amide}] are not above 45.5 µM and not above 50 µM.
As to `N=C(N)NC1CCC(NC(=O)c2cc3cc(NC(=O)c4ccc5[nH]c(C(=O)NC6CCC(NC(=N)N)CC6)cc5c4)ccc3[nH]2)CC1` (stereo not shown) [Compound 21, 1H-Indole-2,5-dicarboxylic acid 2-[(4-guanidino-cyclohexyl)-amide] 5-{[2-(4-guaizidino-cyclohexylcarbamoyl)-1H-indol-5-yl]-amide}], the MIC is not above 45.5 µM in the test on bacteria and not above 50 µM against Aspergillus species.
`CC(C)Cn1cc(NC(=O)c2ccc3[nH]c(C(=O)NCCNC(=N)N)cc3c2)cc1C(=O)NCCNC(=N)N` [Compound 29, 1H-indole-2,5-dicarboxylic acid 2-[(2-guanidino-ethyl)-amide] 5-{[5-(2-guanidino-ethylcarbamoyl)-1-isobutyl-1H-pyrrol-3-yl]-amide}] registered an MIC against bacteria not above 45.5 µM.
`N=C(N)NCCC[C@H](N)C(=O)NCCCNC(=O)c1cc2ccc(NC(=O)c3cc4cc(C(=O)NCCNC(=O)[C@@H](N)CCCNC(=N)N)ccc4[nH]3)cc2[nH]1` [Compound 66, 1H-Indole-2,5-dicarboxylic acid 5-{[2-(2-amino-5-guanidino-pentanoylamino)-ethyl]-amide} 2-({2-[3-(2-amino-5-guanidino-pentanoylamino)-propylcarbamoyl]-1H-indol-6-yl}-amide)]: the MIC in the test on bacteria is not above 45.5 µM.
Take `N=C(N)NCCNC(=O)c1ccc(C(=O)Nc2ccc3[nH]c(C(=O)NCCNC(=N)N)cc3c2)cc1` [Compound 70, N-(2-Guanidino-ethyl)-N′-[2-(2-guanidino-ethylcarbamoyl)-1H-indol-5-yl]-terephthalamide]: the MIC in the test with Aspergillus species is not above 50 µM.
Consider `C/N=C(/NCCNC(=O)c1ccc2[nH]c(C(=O)Nc3ccc4[nH]c(C(=O)NCCN/C(=N/C)SC)cc4c3)cc2c1)SC` [Compound 90, 1H-Indole-2,5-dicarboxylic acid 5-{[2-(2,3-dimethylisothioureido)ethyl]amide} 2-({2-[2-(2,3-dimethylisothioureido)ethylcarbamoyl]-1H-indol-5-yl}amide)dihydrochloride], for which, in the test with bacteria, the MIC was not above 45.5 µM.
Same read-out and setting: in the case of `CC(C)(C)OC(=O)NCCNC(=O)c1cc2cc(NC(=O)c3cc4cc(N)ccc4[nH]3)ccc2[nH]1` [Compound 107, [2-({5-[(5-Amino-1H-indole-2-carbonyl)-amino]-1H-indole-2-carbonyl}-amino)-ethyl]-carbamic acid tert-butyl ester] it was not above 45.5 µM.
Compound `N=C(N)NCCNC(=O)c1cc2cc(NC(=O)c3cc4cc(NC(=O)CNC(=N)N)ccc4o3)ccc2[nH]1` [Compound 135, 5-{[5-(2-guanidino-acetylamino)-benzofuran-2-carbonyl]-amino}-1H-indole-2-carboxylic acid (2-guanidino-ethyl)-amide] registered an MIC with Aspergillus species not above 50 µM.
Same read-out and setting: the figure for `N=C(N)NCCNC(=O)c1cc2cc(NC(=O)c3cc4cc(NC(=O)CNC(=N)N)ccc4[nH]3)ccc2[nH]1` [Compound 138, 5-{[5-(2-guanidino-acetylamino)-1H-indole-2-carbonyl]-amino}-1H-indole-2-carboxylic acid (2-guanidino-ethyl)-amide] is not above 50 µM; for `C[n+]1ccccc1NCCNC(=O)c1ccc2[nH]c(C(=O)Nc3ccc4cc(C(=O)NCCNc5cccc[n+]5C)[nH]c4c3)cc2c1` [Compound 170, 1H-Indole-2,5-dicarboxylic acid 5-[(2-(1-methylpyridiniu-2-yl)amino-ethyl)-amide] 2-{[2-(2-(1-methylpyridiniu-2-yl)amino-ethylcarbamoyl)-1H-indol-6-yl]-amide}] it is not above 50 µM; for `N=C(N)NCCNC(=O)c1cc2ccc(NC(=O)c3cc4cc(C(=O)NCNC(=N)N)ccc4[nH]3)cc2[nH]1` [Compound 172, 1H-Indole-2,5-dicarboxylic acid 2-{[2-(2-guanidino-ethylcarbamoyl)-1H-indol-6-yl]-amide} 5-guanidinomethyl-amide] it is not above 50 µM.
In the test on Aspergillus species, `N=C(N)NCNC(=O)c1ccc2[nH]c(C(=O)Nc3ccc4cc(C(=O)NCNC(=N)N)[nH]c4c3)cc2c1` [Compound 173, 1H-Indole-2,5-dicarboxylic acid 5-guanidinomethyl-amide 2-{[2-(guanidinomethyl-carbamoyl)-1H-indol-6-yl]-amide}] had an MIC not above 50 µM.
On the same count and under the same terms, in the case of `N=C(N)NCCNC(=O)c1ccc2[nH]c(C(=O)Nc3ccc4[nH]c(C(=O)NCCNC(=N)N)nc4c3)cc2c1` [Compound 175, 1H-Indole-2,5-dicarboxylic acid 5-[(2-guanidino-ethyl)-amide] 2-{[2-(2-guanidino-ethylcarbamoyl)-1H-benzoimidazol-5-yl]-amide)] it was not above 50 µM.
Same read-out and setting: in the case of `CN(CCNC(=N)N)C(=O)c1ccc2[nH]c(C(=O)Nc3ccc4cc(C(=O)NCCNC(=N)N)[nH]c4c3)cc2c1` [Compound 176, 1H-Indole-2,5-dicarboxylic acid 2-{[2-(2-guanidino-ethylcarbamoyl)-1H-indol-6-yl]-amide} 5-[(2-guanidino-ethyl)-methyl-amide]] it was not above 50 µM; in that of `N=C(N)NCCNC(=O)c1ccc2sc(C(=O)Nc3ccc4sc(C(=O)NCCNC(=N)N)cc4c3)cc2c1` [Compound 177, Benzo[b]thiophene-2,5-dicarboxylic acid 5-[(2-guanidino-ethyl)-amide]2-{[2-(2-guanidino-ethylcarbamoyl)-benzo[b]thiophen-5-yl]-amide}], not above 50 µM; in that of `N=C(N)NCCNC(=O)c1ccc2[nH]c(C(=O)Nc3ccc4cc(C(=O)NCCNC(=N)N)sc4c3)cc2c1` [Compound 178, 1H-Indole-2,5-dicarboxylic acid 5-[(2-guanidino-ethyl)-amide] 2-{[2-(2-guanidino-ethylcarbamoyl)-benzo[b]thiophen-6-yl]-amide}], not above 50 µM.
On the same count and under the same terms, the figure for `CNCCNC(=O)c1cc2ccc(NC(=O)c3cc4cc(C(=O)NCCNC(=N)N)ccc4[nH]3)cc2[nH]1` [Compound 182, 1H-Indole-2,5-dicarboxylic acid 5-[(2-guanidinoethyl)amide] 2-{[2-(2-methylaminoethylcarbamoyl)-1H-indol-6-yl]amide}] is not above 50 µM.
In turn, `CN(C)CCNC(=O)c1cc2ccc(NC(=O)c3cc4cc(C(=O)NCCNC(=N)N)ccc4[nH]3)cc2[nH]1` [Compound 183, 1H-Indole-2,5-dicarboxylic acid 2-{[2-(2-dimethylaminoethylcarbamoyl)-1H-indol-6-yl]amide} 5-[(2-guanidinoethyl)amide]] gave an MIC with Aspergillus species not above 50 µM.
The same measure, in the same setting: in the case of `N#C/N=C(/N)NCCNC(=O)c1cc2ccc(NC(=O)c3cc4cc(C(=O)NCCNC(=N)N)ccc4[nH]3)cc2[nH]1` [Compound 184, 1H-Indole-2,5-dicarboxylic acid 5-{[2-(guanidino)ethyl]amide} 2-({2-[2-(N′-cyanoguanidino)ethylcarbamoyl]-1H-indol-6-yl}amide)] it was not above 50 µM.
